{
  "source": "patent US7279321B2",
  "about": "“Methods for increasing the resistance of a host cell to aromatic carboxylic acids” (priority 2003, dated 2007)",
  "assay_type_in_all_cases": "cell-based",
  "key": {"[1]": {"tested_on": "E. coli strain DPD2444 (yhcP::TN<Kan>)", "assay": "MIC, 2-fold dilutions, Vogel-Bonner medium with 0.4% glucose", "settings": "Escherichia coli, read-out: MIC for pHBA", "description": "The yhcP::TN<Kan> was introduced into E. coli strain MG1655 (obtained from Prof. Douglas Berg, Washington University School of Medicine, St. Louis, […].) by P1clr100 Cm mediated transduction to kanamycin resistance using phage lysates of E. coli strain DPD2443. One of the resultant kanamycin resistant transductants was named DPD2444."}, "E. coli DPD2444 (yhcP−)": {"tested_on": "E. coli DPD2444 (yhcP−)", "assay": "microbe, parasite or virus in culture", "protocol": "(§1) Additional compounds were tested for growth inhibition of E. coli MG1655 (yhcP^+) and DPD2444 (yhcP^−) in Vogel-Bonner medium with glucose as the carbon source and with 0.01% tetrazolium violet added as an indicator of viability. A series of two-fold dilutions of each chemical was made to the wells of a clear 96-well microplate in 50 μl volume. To these wells was added 50 μl of an overnight culture in Vogel Bonner medium with glucose as a carbon source of either MG1655 or DPD2444 that had been previously diluted 500-fold into fresh medium. The plates were incubated at 37° C. without shaking for 16 to 18 hours. The purple color in each well was visually scored. A score of 4+ indicated full purple color equivalent to a no chemical control well. Scores of 3+, 2+, or 1+ indicated decreasing amounts of purple color. A score of − indicated the complete absence of color. The MIC was defined as the lowest tested concentration that gave complete absence of color. The rank of difference between strains was defined as the score of pigment color for E. coli MG1655 in wells containing the concentration of a given chemical at the MIC for DPD24444. When MG1655 had no color, the score was 0. When MG 1655 was scored at 1+, the score was 1, when scored at 2+, the score was 2, etc."}, "E. coli MG1655 (yhcP+)": {"tested_on": "E. coli MG1655 (yhcP+)", "assay": "microbe, parasite or virus in culture", "protocol": "as §1"}, "[2]": {"tested_on": "E. coli strain DPD2459 (MG1655 + with pKK223-3 control plasmid)", "assay": "pHBA zone of growth inhibition, plasmid-carrying strains (Table 9)", "description": "(§2) Plasmids pDEW668, pDEW673, pDEW675, and a control plasmid, pTrcHis2TOPO®/lacZ (Invitrogen), were moved by transformation to E. coli strain DPD2433, selecting for Ampicillin resistance, to generate strains DPD3317, DPD2455, DPD2457, and DPD3316, respectively.\n(§3) The YhcP-Left primer was designed to contain a HindIII site and the YhcP-Right primer was designed to contain an EcoRI site for directional cloning of the resultant PCR product. […] The product of the PCR reaction was digested with restriction enzymes EcoRI and HindIII. The restriction digestion also contained pKK223-3 at an approximate molar ratio of 2:1 (insert:vector). Following incubation at 37° C. for 1.5 hours, the enzymes were inactivated by incubation at 65° C. for 20 minutes. The enzymes were subsequently removed by use a Qiaquick PCR purification kit (Qiagen) according to the vendor's instructions. The purified restriction products were ligated using T4 DNA ligase at 16° C. overnight. Following ligation, PstI and SmaI digestions were used to linearize the vector without insert DNA. The DNA from this selection digestion was used for transformation of E. coli strain JM105 (Amersham Pharmacia Biotech Inc., Piscataway, N.J.) using selection for Ampicillin resistance. Plasmid DNA from individual transformants was digested with EcoRI and HindIII. […] This plasmid and others were placed in various host strains by transformation and selection for Ampicillin resistance."}, "[3]": {"tested_on": "E. coli strain DPD2462 (DPD2444 yhcP− with pKK223-3 control plasmid)", "assay": "pHBA zone of growth inhibition, plasmid-carrying strains (Table 9)", "description": "as §2, §3"}, "[4]": {"tested_on": "E. coli strain DPD2463 (DPD2444 yhcP− with pDEW659 yhcP)", "assay": "pHBA zone of growth inhibition, plasmid-carrying strains (Table 9)", "description": "as §2, §3"}, "[5]": {"tested_on": "E. coli strain DPD2464 (DPD2444 yhcP− with pDEW673 yhcQP)", "assay": "pHBA zone of growth inhibition, plasmid-carrying strains (Table 9)", "description": "as §2, §3"}, "[6]": {"tested_on": "E. coli strain DPD2465 (DPD2444 yhcP− with pDEW675 yhcRQ)", "assay": "pHBA zone of growth inhibition, plasmid-carrying strains (Table 9)", "description": "as §2, §3"}, "[7]": {"tested_on": "E. coli strain DPD2466 (DPD2433 yhcS− with pKK223-3 control plasmid)", "assay": "pHBA zone of growth inhibition, plasmid-carrying strains (Table 9)", "description": "as §2, §3"}, "[8]": {"tested_on": "E. coli strain DPD2467 (DPD2433 yhcS− with pDEW659 yhcP)", "assay": "pHBA zone of growth inhibition, plasmid-carrying strains (Table 9)", "description": "as §2, §3"}, "[9]": {"tested_on": "E. coli DPD2433 (yhcS−) with pDEW668 (yhcRQP)", "assay": "pHBA MIC, 3:4 dilutions, Vogel-Bonner medium with 0.4% glucose", "settings": "Escherichia coli, 21 h, read-out: pHBA MIC", "description": "(§4) An additional experiment is consistent with the above conclusion. This experiment used E. coli strain MG1655 and strains derived from it, DPD1818 (described above in this example) with a to/C::miniTn10 mutation, […] (described in example 3) with a yhcS::TN<Kan> mutation, and DPD2435 that carries both the to/C::miniTn10 and yhcS::TN<Kan> mutations. The latter strain was constructed using P1clr100Cm mediated transduction of DE112 with phage grown on strain DPD2410 (described in Example 3) and selection for kanamycin resistance. These four strains were each transformed with plasmids pTrcHis2TOPO®/lacZ (Invitrogen) for a control and pDEW668 that expresses the yhcRQP operon (described in Example 2). […] Vogel-Bonner minimal medium with 0.4% glucose was used. […] The inoculum was 50 μl of a 1:500 dilution into Vogel-Bonner medium with 0.4% glucose as a carbon source of overnight cultures of each of the plasmid-containing strains grown in the same medium except with addition of 25 μg/ml Ampicillin."}, "[10]": {"tested_on": "E. coli DPD2433 (yhcS−) with pTrcHis2TOPO®/lacZ (control)", "assay": "pHBA MIC, 3:4 dilutions, Vogel-Bonner medium with 0.4% glucose", "settings": "Escherichia coli, 21 h, read-out: pHBA MIC", "description": "as §4"}, "[11]": {"tested_on": "E. coli MG1655 (+) with pTrcHis2TOPO®/lacZ (control)", "assay": "pHBA MIC, 3:4 dilutions, Vogel-Bonner medium with 0.4% glucose", "settings": "Escherichia coli, read-out: pHBA MIC, control plasmid, 21 hours at 37° C., sodium salt, highest tested 100 mM", "description": "as §4"}, "[12]": {"tested_on": "yhcP gene (co-transcribed with yhcQ and yhcR)", "assay": "expression of yhcP upon treatment of E. coli cells with aromatic carboxylic acids"}},
  "data": [
    {"compound": "O=C(O)c1ccc(O)cc1", "note": "[pHBA, para-hydroxybenzoic acid]", "values": [
      {"measurement": "MIC", "setting": "[1]", "value": 25, "unit": "mM"},
      {"measurement": "MIC", "setting": "E. coli DPD2444 (yhcP−); Escherichia coli, read-out: MIC, DPD2444 (yhcP−)", "value": 12.5, "unit": "mM"},
      {"measurement": "defined as substrate of the YhcP efflux pump by this genetic test", "setting": "E. coli DPD2444 (yhcP−); MIC difference at least 2-fold and rank at least 2", "value": "substrates of the YhcP efflux pump"},
      {"measurement": "MIC", "setting": "E. coli MG1655 (yhcP+); Escherichia coli, MG1655, read-out: MIC, MG1655 (yhcP+)", "value": 100, "unit": "mM"},
      {"measurement": "Rank Diff", "setting": "E. coli MG1655 (yhcP+); score of pigment color for MG1655 at the MIC for DPD2444 (0 = no color, 4 = full purple color)", "value": 4},
      {"measurement": "clarity of pHBA zone of growth inhibition", "setting": "[2]", "value": "turbid"},
      {"measurement": "pHBA zone of growth inhibition, mm diameter", "setting": "[2]; tested as for Table 8", "value": 10.0, "unit": "mm"},
      {"measurement": "clarity of pHBA zone of growth inhibition", "setting": "[3]", "value": "clear"},
      {"measurement": "pHBA zone of growth inhibition, mm diameter", "setting": "[3]; tested as for Table 8", "value": 22.8, "unit": "mm"},
      {"measurement": "clarity of pHBA zone of growth inhibition", "setting": "[4]", "value": "turbid"},
      {"measurement": "pHBA zone of growth inhibition, mm diameter", "setting": "[4]; tested as for Table 8", "value": 10.5, "unit": "mm"},
      {"measurement": "clarity of pHBA zone of growth inhibition", "setting": "[5]", "value": "turbid"},
      {"measurement": "pHBA zone of growth inhibition, mm diameter", "setting": "[5]; tested as for Table 8", "value": 9.8, "unit": "mm"},
      {"measurement": "clarity of pHBA zone of growth inhibition", "setting": "[6]", "value": "clear"},
      {"measurement": "pHBA zone of growth inhibition, mm diameter", "setting": "[6]; tested as for Table 8", "value": 21.8, "unit": "mm"},
      {"measurement": "clarity of pHBA zone of growth inhibition", "setting": "[7]", "value": "clear"},
      {"measurement": "pHBA zone of growth inhibition, mm diameter", "setting": "[7]; tested as for Table 8", "value": 19.2, "unit": "mm"},
      {"measurement": "clarity of pHBA zone of growth inhibition", "setting": "[8]", "value": "clear"},
      {"measurement": "pHBA zone of growth inhibition, mm diameter", "setting": "[8]; tested as for Table 8", "value": 18.8, "unit": "mm"},
      {"measurement": "MIC", "setting": "[9]", "value": 100, "unit": "mM"},
      {"measurement": "MIC", "setting": "[10]", "value": 18, "unit": "mM"},
      {"measurement": "MIC", "setting": "[11]", "value": 100, "unit": "mM"},
      {"measurement": "expression of the yhcP gene upon treatment of E. coli cells", "setting": "[12]", "value": "highly upregulated"}
    ]}
  ]
}
